Reference: US20260232796A1, “COMBINATION THERAPIES WITH AN ANTI-FACTOR XI/FACTOR XIA ANTIBODY” (Anthos Therapeutics, Inc., priority 2022, published 2026)
Where two headings read alike, the source gives them in different places.

What was measured:
platelet aggregation [1] = experiment: Impedance platelet aggregometry in whole blood spiked with aspirin +/- Antibody 1; assay type: cell-based; settings: Homo sapiens, aspirin 1 mg/mL
Procedure: Two studies were conducted concurrently. Blood specimens were obtained in EDTA and citrate tubes (6 healthy donors for each study). In the first study, whole blood was spiked with vehicle, aspirin (1 mg/mL), or aspirin (1 mg/mL)+Antibody 1 (125, 250, and 500 nM). Platelet aggregation was measured by impedance platelet aggregometry following induction with collagen (3.2 μg/mL) or arachidonic acid (0.5 mM) (Multiplate® analyzer, COLtest and ASPItest reagents; Roche Diagnostics International Ltd, Rotkreuz, Switzerland).

platelet aggregation [2] = experiment: Impedance platelet aggregometry in whole blood spiked with ticagrelor +/- Antibody 1; assay type: cell-based, human; settings: ticagrelor 3 μM
Procedure: In the second study, whole blood was spiked with vehicle, ticagrelor (3 μM), or ticagrelor (3 μM)+Antibody 1 (125, 250, and 500 nM). Platelet aggregation was measured with the same methodology following induction by ADP (6.4 μM) or thrombin receptor activating peptide-6 (TRAP-6, 32 μM).

platelet aggregation [3] = experiment: Whole blood platelet aggregation, multiplate impedance aggregometer (Example 1); assay type: cell-based, human; settings: collagen 1 μg/mL, Antibody 1 250, 500 or 1000 nM, abciximab 50 nM, vs vehicle
Procedure: (§1) Whole blood was obtained in EDTA and citrate tubes (6 healthy donors). Specimens were spiked with vehicle, Antibody 1 (250, 500, or 1000 nM), or abciximab (50 nM). Platelet aggregation was recorded following induction using collagen (1 μg/mL) or TRAP-6 (8 μM) using a multiplate impedance aggregometer. The area under the curve (AUC) for platelet aggregation was determined in arbitrary aggregation*time (AU*min). Thrombin generation was also measured at the above Antibody 1 and abciximab concentrations in platelet-rich plasma using Thrombinoscope CAT (Calibrated Automated Thrombogram; Stago CH S.A. and tissue factor reagent (1 μM); fluorescence was measured by an automated plate reader fluorometer.

thrombin generation = experiment: Thrombin generation in platelet-rich plasma, Calibrated Automated Thrombogram; assay type: biochemical, human; settings: tissue factor reagent, abciximab 50 nM
Procedure: as §1

In the case of `CC(=O)Oc1ccccc1C(=O)O` [aspirin], the inhibition at 1000 µg/mL (platelet aggregation [1]; arachidonic acid 0.5 mM, p<0.05, read-out: inhibition of platelet aggregation induced with arachidonic acid) is reported as 71% and the inhibition at 1000 µg/mL (platelet aggregation [1]; collagen 3.2 μg/mL, p<0.05, read-out: inhibition of platelet aggregation induced with collagen) is reported as 60%.

For `CCCSc1nc(N[C@@H]2C[C@H]2c2ccc(F)c(F)c2)c2nnn([C@@H]3C[C@H](OCCO)[C@@H](O)[C@H]3O)c2n1` [ticagrelor], the inhibition at 3 µM (platelet aggregation [2]; Homo sapiens, Platelet, ADP 6.4 μM, p<0.05, read-out: inhibition of platelet aggregation induced with ADP) was 54% and the “inhibition of platelet aggregation induced with TRAP-6” value (platelet aggregation [2]; TRAP-6 32 μM, p<0.05) was 31%.

B1: abciximab (antibody, chains of the INN, looked up, V domains shown)
VH: EVQLQQSGTVLARPGASVKMSCEASGYTFTNYWMHWVKQRPGQGLEWIGAIYPGNSDTSYIQKFKGKAKLTAVTSTTSVYMELSSLTNEDSAVYYCTLYDGYYVFAYWGQGTLVTVSA
VL: EIVLTQSPVTLSVTPGDSVSLSCRASRDISNNLHWFQQTSHESPRLLIKYASQSMSGIPSRFSGSGSGTDFTLSINSVETEDFGMYFCQQTNSWPYTFGGGTKLEIK
modifications: Fab
For B1, the “platelet aggregation induced by collagen” value (platelet aggregation [3]) was “significant reductions” and the “effect on thrombin generation” value (thrombin generation) was “no effect”.
